From article PMC7026418, “The kinase polypharmacology landscape of clinical PARP inhibitors” (Scientific Reports, 2020)
Like-named read-outs stand apart in the source and are kept apart here.

Experiments:
Assay in all cases: biochemical
Parameters in all cases: DiscoveRx KINOMEscan active site-directed competition binding; percent of control kinase bound to immobilised ligand
ICK = molecular target: T1, ICK (Homo sapiens, UniProt Q9UPZ9)
T1 construct: gene CILK1
T1 sequence (Q9UPZ9 1-632): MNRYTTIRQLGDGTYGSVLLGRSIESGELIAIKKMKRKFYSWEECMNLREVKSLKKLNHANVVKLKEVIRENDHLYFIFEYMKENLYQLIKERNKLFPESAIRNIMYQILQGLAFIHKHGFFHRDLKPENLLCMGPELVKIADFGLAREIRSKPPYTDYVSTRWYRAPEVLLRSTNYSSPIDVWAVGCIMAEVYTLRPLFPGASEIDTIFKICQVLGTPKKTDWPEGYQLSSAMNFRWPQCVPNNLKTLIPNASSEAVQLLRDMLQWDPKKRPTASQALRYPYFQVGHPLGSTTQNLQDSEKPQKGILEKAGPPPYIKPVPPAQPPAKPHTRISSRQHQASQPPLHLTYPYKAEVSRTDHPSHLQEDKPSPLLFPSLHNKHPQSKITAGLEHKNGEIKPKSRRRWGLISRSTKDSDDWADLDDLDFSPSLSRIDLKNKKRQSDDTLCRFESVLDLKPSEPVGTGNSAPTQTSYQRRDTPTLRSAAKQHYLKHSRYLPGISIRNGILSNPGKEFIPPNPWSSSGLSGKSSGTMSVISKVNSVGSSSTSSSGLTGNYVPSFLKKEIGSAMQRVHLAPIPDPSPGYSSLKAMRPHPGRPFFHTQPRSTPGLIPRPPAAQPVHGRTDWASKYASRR

MET(Y1235D) = MET(Y1235D) (Homo sapiens, UniProt P08581, Y1235D)
MUSK = molecular target: T2, MUSK (Homo sapiens, UniProt O15146)
T2 sequence (O15146 1-869): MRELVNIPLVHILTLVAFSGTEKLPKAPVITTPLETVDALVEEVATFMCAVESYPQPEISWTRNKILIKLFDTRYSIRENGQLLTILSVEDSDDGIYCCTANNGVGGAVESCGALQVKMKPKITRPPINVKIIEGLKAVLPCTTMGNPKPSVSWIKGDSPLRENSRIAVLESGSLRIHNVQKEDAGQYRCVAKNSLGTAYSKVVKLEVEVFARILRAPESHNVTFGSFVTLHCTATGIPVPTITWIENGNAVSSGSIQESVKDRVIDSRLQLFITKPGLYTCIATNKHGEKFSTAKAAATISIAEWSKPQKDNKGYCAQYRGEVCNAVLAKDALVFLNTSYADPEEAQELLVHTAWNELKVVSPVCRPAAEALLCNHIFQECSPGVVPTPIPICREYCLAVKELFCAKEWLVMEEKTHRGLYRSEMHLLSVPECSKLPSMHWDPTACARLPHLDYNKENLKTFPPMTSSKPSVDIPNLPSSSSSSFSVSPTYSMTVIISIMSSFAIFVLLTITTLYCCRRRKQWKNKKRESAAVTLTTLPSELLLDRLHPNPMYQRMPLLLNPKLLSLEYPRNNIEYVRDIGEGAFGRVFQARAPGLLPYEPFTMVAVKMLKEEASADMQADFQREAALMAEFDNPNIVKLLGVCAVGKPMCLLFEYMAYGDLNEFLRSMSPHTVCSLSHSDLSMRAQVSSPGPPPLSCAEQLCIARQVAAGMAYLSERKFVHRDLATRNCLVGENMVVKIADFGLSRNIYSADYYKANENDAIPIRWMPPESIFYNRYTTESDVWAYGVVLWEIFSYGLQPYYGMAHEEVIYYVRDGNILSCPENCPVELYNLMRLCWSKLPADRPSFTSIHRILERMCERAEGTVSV

PRKG1 = molecular target: T3, PRKG1 (Homo sapiens, UniProt Q13976)
T3 sequence (Q13976 1-671): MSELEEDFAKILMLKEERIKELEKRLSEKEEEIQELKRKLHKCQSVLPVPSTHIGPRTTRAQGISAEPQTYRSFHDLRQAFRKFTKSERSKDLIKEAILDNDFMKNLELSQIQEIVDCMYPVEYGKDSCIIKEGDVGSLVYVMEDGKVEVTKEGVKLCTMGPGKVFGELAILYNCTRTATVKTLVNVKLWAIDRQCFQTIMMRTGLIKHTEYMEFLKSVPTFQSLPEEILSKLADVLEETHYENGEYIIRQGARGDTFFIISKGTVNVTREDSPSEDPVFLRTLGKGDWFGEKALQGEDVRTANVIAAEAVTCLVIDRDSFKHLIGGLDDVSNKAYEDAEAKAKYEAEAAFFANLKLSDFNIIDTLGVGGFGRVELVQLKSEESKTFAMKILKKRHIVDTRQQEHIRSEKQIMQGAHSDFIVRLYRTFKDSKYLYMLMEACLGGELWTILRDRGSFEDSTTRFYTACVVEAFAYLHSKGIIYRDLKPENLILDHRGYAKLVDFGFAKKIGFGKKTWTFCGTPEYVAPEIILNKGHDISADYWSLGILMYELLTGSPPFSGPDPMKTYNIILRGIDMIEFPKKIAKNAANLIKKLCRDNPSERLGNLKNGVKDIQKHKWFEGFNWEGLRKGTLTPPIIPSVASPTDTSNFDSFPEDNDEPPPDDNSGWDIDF

[1] = read-out: Talazoparib (BMN 673) / %Ctrl @ 10000nM
[2] = read-out: Olaparib / %Ctrl @ 10000nM
[3] = read-out: Niraparib (MK-4827) / %Ctrl @ 10000nM
[4] = read-out: Rucaparib / %Ctrl @ 10000nM, binding competition, % of control

Sequence of MET(Y1235D) (P08581 whole entry Y1235D): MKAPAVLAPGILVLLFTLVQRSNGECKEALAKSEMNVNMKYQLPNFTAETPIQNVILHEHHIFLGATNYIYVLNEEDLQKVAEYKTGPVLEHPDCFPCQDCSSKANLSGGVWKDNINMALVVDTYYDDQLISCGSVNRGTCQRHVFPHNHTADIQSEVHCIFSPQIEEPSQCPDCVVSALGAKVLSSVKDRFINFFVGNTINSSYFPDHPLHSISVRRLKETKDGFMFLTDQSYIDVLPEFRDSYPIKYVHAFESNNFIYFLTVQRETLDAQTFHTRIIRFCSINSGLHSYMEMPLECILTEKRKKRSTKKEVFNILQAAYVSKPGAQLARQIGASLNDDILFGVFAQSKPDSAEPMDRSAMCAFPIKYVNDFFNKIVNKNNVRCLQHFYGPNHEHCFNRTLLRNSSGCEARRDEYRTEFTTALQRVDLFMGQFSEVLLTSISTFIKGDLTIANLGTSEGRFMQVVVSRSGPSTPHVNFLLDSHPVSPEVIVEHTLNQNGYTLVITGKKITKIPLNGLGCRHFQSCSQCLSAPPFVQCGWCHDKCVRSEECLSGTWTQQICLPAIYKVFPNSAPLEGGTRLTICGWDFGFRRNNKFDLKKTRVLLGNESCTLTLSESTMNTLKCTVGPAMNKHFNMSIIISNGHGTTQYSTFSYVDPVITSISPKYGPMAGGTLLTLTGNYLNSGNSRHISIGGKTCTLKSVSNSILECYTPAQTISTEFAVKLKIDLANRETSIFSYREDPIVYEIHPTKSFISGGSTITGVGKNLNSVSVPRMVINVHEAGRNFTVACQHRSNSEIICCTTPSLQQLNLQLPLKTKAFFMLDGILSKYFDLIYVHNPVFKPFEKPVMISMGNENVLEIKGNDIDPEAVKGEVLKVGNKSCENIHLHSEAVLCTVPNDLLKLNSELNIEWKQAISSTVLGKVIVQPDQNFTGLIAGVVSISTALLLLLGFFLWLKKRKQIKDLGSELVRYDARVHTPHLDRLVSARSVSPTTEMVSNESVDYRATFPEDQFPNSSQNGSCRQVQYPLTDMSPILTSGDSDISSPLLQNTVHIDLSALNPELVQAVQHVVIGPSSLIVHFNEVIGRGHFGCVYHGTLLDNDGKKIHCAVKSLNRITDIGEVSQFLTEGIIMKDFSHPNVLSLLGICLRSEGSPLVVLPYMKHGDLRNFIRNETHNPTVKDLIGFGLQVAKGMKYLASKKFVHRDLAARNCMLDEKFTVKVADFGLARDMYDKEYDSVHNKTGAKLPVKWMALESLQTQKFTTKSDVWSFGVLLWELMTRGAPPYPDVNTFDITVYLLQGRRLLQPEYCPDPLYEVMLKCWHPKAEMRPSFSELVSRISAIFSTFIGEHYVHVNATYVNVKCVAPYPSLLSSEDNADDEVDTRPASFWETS

Cn1ncnc1[C@H]1c2n[nH]c(=O)c3cc(F)cc(c23)N[C@@H]1c1ccc(F)cc1 [Talazoparib]
percent of control binding at 10 µM (ICK; [1]): 71% | percent of control binding at 10 µM (MET(Y1235D); [1]): 96% | percent of control binding at 10 µM (MUSK; [1]): 100% | percent of control binding at 10 µM (PRKG1; [1]): 57%

O=C(c1cc(Cc2n[nH]c(=O)c3ccccc23)ccc1F)N1CCN(C(=O)C2CC2)CC1 [Olaparib]
percent of control binding at 10 µM (ICK; [2]): 92% | percent of control binding at 10 µM (MET(Y1235D); [2]): 82% | percent of control binding at 10 µM (MUSK; [2]): 100% | percent of control binding at 10 µM (PRKG1; [2]): 100%

NC(=O)c1cccc2cn(-c3ccc([C@@H]4CCCNC4)cc3)nc12 [Niraparib]
percent of control binding at 10 µM (ICK; [3]): 63% | percent of control binding at 10 µM (MET(Y1235D); [3]): 75% | percent of control binding at 10 µM (MUSK; [3]): 82% | percent of control binding at 10 µM (PRKG1; [3]): 100%

CNCc1ccc(-c2[nH]c3cc(F)cc4c3c2CCNC4=O)cc1 [Rucaparib]
percent of control binding at 10 µM (ICK; [4]): 64% | percent of control binding at 10 µM (MET(Y1235D); [4]): 92% | percent of control binding at 10 µM (MUSK; [4]): 96% | percent of control binding at 10 µM (PRKG1; [4]): 91%
